Key:
Assay in all cases: in vitro antifungal test, Z. tritici spore suspension in PDB
Assay type in all cases: cell-based
[1] = test system: K9026 Zymoseptoria tritici CYP51 L50S S188N A379G I381V YG459 N513K; settings: for M = (EC50 (enantiomer)/EC50 (racemate)) − 0.5: (−)-enantiomer vs racemate; for EC50 (ppm): growth at 3 days post exposure, average of two replicates
Experimental: (§1) A panel of 16 Zymoseptoria tritici isolates was subjected to in vitro antifungal tests. Spore suspensions of Z. tritici isolates were prepared in potato dextrose broth (PDB) and exposed to defined concentration ranges of the inhibitors (20ppm starting concentration, dilution steps of 3). A sensitive wild-type isolate was used together with a panel of strains containing variants of the Z. tritici CYP51 gene conferring resistance to DMI fungicides. The DMI-resistant isolates were isolated from wheat in the UK, Ireland, Germany and Russia in 2020. Determination of CYP51 gene variants was achieved using targeted gene sequencing. The half maximal effective concentration (EC50) of the inhibitors were calculated based on growth responses of Z. tritici at 3 days post exposure to the different concentrations of the […] using a linear regression. The Tables A and B show an average of EC50 values in ppm from two replicates, as well as M=(EC50 (enantiomer)/EC50 (racemate))−0.5.

[2] = test system: K9020 Zymoseptoria tritici CYP51 L50S V136A I381V Y461S S524T; settings: isolate K9020; for M = (EC50 (enantiomer)/EC50 (racemate)) − 0.5: (−)-enantiomer vs racemate, below 0 = enantiomer outperforms racemate; for EC50 (ppm): growth at 3 days post exposure, average of two replicates
Experimental: as §1

[3] = test system: K9021 Zymoseptoria tritici CYP51 L50S V136A I381V Y461S S524T; settings: isolate K9021; for M = (EC50 (enantiomer)/EC50 (racemate)) − 0.5: (−)-enantiomer vs racemate, below 0 = enantiomer outperforms racemate; for EC50 (ppm): growth at 3 days post exposure, average of two replicates
Experimental: as §1

[4] = test system: K5544 Zymoseptoria tritici (WT); settings: isolate K5544 (WT); for M = (EC50 (enantiomer)/EC50 (racemate)) − 0.5: (−)-enantiomer vs racemate, below 0 = enantiomer outperforms racemate; for EC50 (ppm): growth at 3 days post exposure, average of two replicates
Experimental: as §1

[5] = test system: K9029 Zymoseptoria tritici CYP51 L50S I381V YG459 N513K; settings: for M = (EC50 (enantiomer)/EC50 (racemate)) − 0.5: (−)-enantiomer vs racemate; for EC50 (ppm): growth at 3 days post exposure, average of two replicates; for effectiveness compared with the racemate (in words): isolate K9029, summary of Tables A and B
Experimental: as §1

[6] = test system: K9022 Zymoseptoria tritici CYP51 L50S V136A I381V Y461S S524T; settings: isolate K9022; for M = (EC50 (enantiomer)/EC50 (racemate)) − 0.5: (−)-enantiomer vs racemate, below 0 = enantiomer outperforms racemate; for EC50 (ppm): growth at 3 days post exposure, average of two replicates
Experimental: as §1

[7] = test system: K9032 Zymoseptoria tritici CYP51 L50S D134G V136A I381V Y461H S524T; settings: for M = (EC50 (enantiomer)/EC50 (racemate)) − 0.5: (−)-enantiomer vs racemate; for EC50 (ppm): growth at 3 days post exposure, average of two replicates
Experimental: as §1

[8] = test system: K9023 Zymoseptoria tritici CYP51 L50S V136C S188N A379G I381V YG459 S524T; settings: for M = (EC50 (enantiomer)/EC50 (racemate)) − 0.5: (−)-enantiomer vs racemate; for EC50 (ppm): growth at 3 days post exposure, average of two replicates
Experimental: as §1

Structure (SMILES)	M = (EC50 (enantiomer)/EC50 (racemate)) − 0.5 ([1]; isolate K9026, 1st listed row)	EC50 (ppm) ([1]; isolate K9026, 1st listed row)	M = (EC50 (enantiomer)/EC50 (racemate)) − 0.5 ([1]; isolate K9026, 2nd listed row)	EC50 (ppm) ([1]; isolate K9026, 2nd listed row)	M = (EC50 (enantiomer)/EC50 (racemate)) − 0.5 ([1]; isolate K9026, 3rd listed row)	EC50 (ppm) ([1]; isolate K9026, 3rd listed row)	M = (EC50 (enantiomer)/EC50 (racemate)) − 0.5 [2]	EC50 (ppm) [2] [ppm]	M = (EC50 (enantiomer)/EC50 (racemate)) − 0.5 [3]	EC50 (ppm) [3] [ppm]	M = (EC50 (enantiomer)/EC50 (racemate)) − 0.5 [4]	EC50 (ppm) [4] [ppm]	M = (EC50 (enantiomer)/EC50 (racemate)) − 0.5 ([5]; isolate K9029, 1st listed row)	EC50 (ppm) ([5]; isolate K9029, 1st listed row)	M = (EC50 (enantiomer)/EC50 (racemate)) − 0.5 ([5]; isolate K9029, 2nd listed row)	EC50 (ppm) ([5]; isolate K9029, 2nd listed row)	M = (EC50 (enantiomer)/EC50 (racemate)) − 0.5 ([5]; isolate K9029, 3rd listed row)	EC50 (ppm) ([5]; isolate K9029, 3rd listed row)	effectiveness compared with the racemate (in words) [5]	M = (EC50 (enantiomer)/EC50 (racemate)) − 0.5 [6]	also measured
COC(=O)C(O)(Cn1cncn1)c1ccc(Oc2ccc(Cl)cc2)cc1Cl (single isomer, unassigned; (-)) [(−)-enantiomer of Compound I-1, (−)-Methyl 2-[2-chloro-4-(4-chlorophenoxy)phenyl]-2-hydroxy-3-(1,2,4-triazol-1-yl)propanoate]	−0.10	4	0.00	0.05	0.00	0.05	−0.17	0.01	−0.06	0.04	0.17	0.02	−0.13	0.3	−0.23	0.8	−0.20	3	more effective	0.00	effectiveness compared with the racemate (in words) ([1]; isolate K9026, summary of Tables A and B): more effective; effectiveness compared with the racemate (in words) ([2]; summary of Tables A and B): more effective; EC50 (ppm) [6]: 0.3 ppm; M = (EC50 (enantiomer)/EC50 (racemate)) − 0.5 ([7]; isolate K9032, 1st listed row): 0.00; EC50 (ppm) ([7]; isolate K9032, 1st listed row): 0.1 ppm; M = (EC50 (enantiomer)/EC50 (racemate)) − 0.5 ([7]; isolate K9032, 2nd listed row): 0.10; EC50 (ppm) ([7]; isolate K9032, 2nd listed row): 0.06 ppm; M = (EC50 (enantiomer)/EC50 (racemate)) − 0.5 ([7]; isolate K9032, 3rd listed row): 0.10; EC50 (ppm) ([7]; isolate K9032, 3rd listed row): 0.06 ppm; M = (EC50 (enantiomer)/EC50 (racemate)) − 0.5 ([8]; isolate K9023, 2nd listed row): 0.00; EC50 (ppm) ([8]; isolate K9023, 2nd listed row): 0.1 ppm; M = (EC50 (enantiomer)/EC50 (racemate)) − 0.5 ([8]; isolate K9023, 3rd listed row): 0.00; EC50 (ppm) ([8]; isolate K9023, 3rd listed row): 0.2 ppm; M = (EC50 (enantiomer)/EC50 (racemate)) − 0.5 ([8]; isolate K9023): 0.10; EC50 (ppm) ([8]; isolate K9023): 0.3 ppm
COC(=O)C(O)(Cn1cncn1)c1ccc(Oc2ccc(Cl)cc2)cc1C(F)(F)F (single isomer, unassigned; (-)) [(−)-enantiomer of Compound I-2, (−)-Methyl 2-[4-(4-chlorophenoxy)-2-(trifluoromethyl)phenyl]-2-hydroxy-3-(1,2,4-triazol-1-yl)propanoate]	0.00	3	0.21	0.05	0.07	0.04	0.17	0.02	0.06	0.05	0.50	0.03	0.13	0.5	−0.17	1	0.00	5	more effective	0.07	EC50 (ppm) [6]: 0.4 ppm; M = (EC50 (enantiomer)/EC50 (racemate)) − 0.5 ([7]; isolate K9032, 1st listed row): 0.00; EC50 (ppm) ([7]; isolate K9032, 1st listed row): 0.1 ppm; M = (EC50 (enantiomer)/EC50 (racemate)) − 0.5 ([7]; isolate K9032, 2nd listed row): 0.20; EC50 (ppm) ([7]; isolate K9032, 2nd listed row): 0.07 ppm; M = (EC50 (enantiomer)/EC50 (racemate)) − 0.5 ([7]; isolate K9032, 3rd listed row): 0.30; EC50 (ppm) ([7]; isolate K9032, 3rd listed row): 0.08 ppm; M = (EC50 (enantiomer)/EC50 (racemate)) − 0.5 ([8]; isolate K9023, 2nd listed row): 0.50; EC50 (ppm) ([8]; isolate K9023, 2nd listed row): 0.1 ppm; M = (EC50 (enantiomer)/EC50 (racemate)) − 0.5 ([8]; isolate K9023, 3rd listed row): 0.17; EC50 (ppm) ([8]; isolate K9023, 3rd listed row): 0.2 ppm; M = (EC50 (enantiomer)/EC50 (racemate)) − 0.5 ([8]; isolate K9023): 0.50; EC50 (ppm) ([8]; isolate K9023): 0.3 ppm

From patent publication US20250344697A1, “ENANTIOMERICALLY ENRICHED […] THE CONTROL OF RESISTANT PHYTOPATHOGENIC FUNGI” (SYNGENTA CROP PROTECTION AG, priority 2022, published 2025)
